Measured values from paper doi:10.1101/2023.12.22.573011v1 (biorxiv, 2023).

Biological target: full-length TDP-43 (TDP-43) (Homo sapiens, UniProt Q13148)
Assay: isothermal titration calorimetry
Type: binding

full-length TDP-43 (TDP-43), sequence (Q13148 whole entry): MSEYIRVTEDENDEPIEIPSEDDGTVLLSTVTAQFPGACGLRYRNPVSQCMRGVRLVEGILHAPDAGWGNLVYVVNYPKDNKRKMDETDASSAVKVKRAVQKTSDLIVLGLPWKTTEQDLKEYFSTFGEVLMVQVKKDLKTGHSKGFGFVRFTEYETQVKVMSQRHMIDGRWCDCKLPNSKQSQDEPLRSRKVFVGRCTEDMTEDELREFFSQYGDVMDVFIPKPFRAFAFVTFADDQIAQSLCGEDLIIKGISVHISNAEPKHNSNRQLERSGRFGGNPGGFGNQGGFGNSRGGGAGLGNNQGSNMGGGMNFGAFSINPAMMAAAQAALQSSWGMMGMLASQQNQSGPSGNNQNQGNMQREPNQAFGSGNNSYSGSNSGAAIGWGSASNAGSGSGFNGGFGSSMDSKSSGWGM

Kd: 7.8 µM
Compound: O=C(O[C@@H]1Cc2c(O)cc(O)cc2O[C@@H]1c1cc(O)c(O)c(O)c1)c1cc(O)c(O)c(O)c1 [epigallocatechin gallate]
